In patent US8916499B2, “Herbicidal compositions comprising 4-amino-3-chloro-5-fluoro-6-(4-chloro-2-fluoro-3-methoxyphenyl) pyridine-2-carboxylic acid or a derivative thereof and a protoporphyrinogen oxidase inhibitor” (Dow AgroSciences LLC, priority 2012, dated 2014):

Tests used:
SETVI = test: Pre-emergence soil-applied weed control, greenhouse (Example IV); type: in vivo, Setaria viridis (L.) Beauv.; conditions: 105 g ai/ha alone
Text: (§1) Seeds or nutlets of the desired test plant species were planted in a soil matrix prepared by mixing a loam soil (32 percent silt, 23 percent clay, and 45 percent sand, with a pH of about 6.5 and an organic matter content of about 1.9 percent) and calcareous grit in an 80 to 20 ratio. The soil matrix was contained in plastic pots with a volume of 1 quart and a surface area of 83.6 square centimeters (cm^2).
(§2) Treatments consisted of the benzyl ester of 4-amino-3-chloro-5-fluoro-6-(4-chloro-2-fluoro-3-methoxy-phenyl)pyridine-2-carboxylic acid (compound A) formulated as an SC (suspension concentrate) and various herbicidal components alone and in combination. Forms of compound A were applied on an acid equivalent basis.
(§3) Other herbicidal components were applied on an acid equivalent or active ingredient basis and included the protoporphyrinogen oxidase (PPO)-inhibiting herbicides, flumioxazin formulated as Payload® and oxadiazon formulated as Ronstar® 50W.
(§4) Treatment requirements were calculated based upon the rates being tested, the concentration of active ingredient or acid equivalent in the formulation, and a 12 mL application volume at a rate of 187 L/ha.
For treatments comprised of formulated compounds, measured amounts of compounds were placed individually in 25 mL glass vials and diluted in a volume of 1.25% (v/v) Agri-Dex® crop oil concentrate (COC) to obtain 12× stock solutions. […] Application solutions were prepared by adding an appropriate amount of each stock solution (e.g., 1 mL) and diluted to the appropriate final concentrations with the addition of 10 mL of an aqueous mixture of 1.25% (v/v) COC so that the final spray solutions contained 1.25% (v/v) COC. […]
The treated and control pots were placed in a greenhouse and top watered as needed. […] After approximately 4 weeks, the condition of the test plants as compared with that of the untreated plants was determined visually and scored on a scale of 0 to 100 percent where 0 corresponds to no injury or growth inhibition and 100 corresponds to complete kill. […]

IPOHE = test: as above; type: in vivo, Ipomoea hederacea (L.) Jacq.
Text: as §1, §2, §3, §4
(§5) For treatments comprised of formulated compounds, measured amounts of compounds were placed individually in 25 mL glass vials and diluted in a volume of 1.25% (v/v) Agri-Dex® crop oil concentrate (COC) to obtain 12× stock solutions. […] Application solutions were prepared by adding an appropriate amount of each stock solution (e.g., 1 mL) and diluted to the appropriate final concentrations with the addition of 10 mL of an aqueous mixture of 1.25% (v/v) COC so that the final spray solutions contained 1.25% (v/v) COC.
(§6) All stock solutions and applications solutions were visually inspected for compound compatibility prior to application. Spray solutions were applied to the soil with an overhead Mandel track sprayer equipped with a 8002E nozzles calibrated to deliver 187 L/ha over an application area of 0.503 m^2 at a spray height of 18 inches (46 cm) above average pot height. Control pots were sprayed in the same manner with the solvent blank.
(§7) The treated and control pots were placed in a greenhouse and top watered as needed. When required to ensure good germination and healthy plants, a fungicide treatment and/or other chemical or physical treatment was applied. The pots were maintained in a greenhouse with an approximate 14 hr photoperiod which was maintained at about 29° C. during the day and 26° C. during the night. Nutrients (Peters® Excel 15-5-15 5-Ca 2-Mg) were applied in the irrigation solution as needed and water was added on a regular basis. Supplemental lighting was provided with overhead metal halide 1000-Watt lamps as necessary. After approximately 4 weeks, the condition of the test plants as compared with that of the untreated plants was determined visually and scored on a scale of 0 to 100 percent where 0 corresponds to no injury or growth inhibition and 100 corresponds to complete kill.
Colby's equation was used to determine the herbicidal effects expected from the mixtures (Colby, S. R. 1967. Calculation of the synergistic and antagonistic response of herbicide combinations. Weeds 15:20-22.).
The following equation was used to calculate the expected activity of mixtures containing two active ingredients, A and B: Expected=A+B−(A×B/100)

XANST = test: as above; type: in vivo, Xanthium strumarium L.
Text: as §1, §2, §3, §4, §5, §6
as §7, with “Nutrients (Peters® Excel 15-5-15 5-Ca 2-Mg) were applied in the irrigation solution as needed and water was added on a regular basis. Supplemental lighting was provided with overhead metal halide 1000-Watt lamps as necessary.” left out, “kill. […]” for “kill.”

LEFCH [1] = test: Postemergence foliar-applied weed control, direct seeded rice, greenhouse (Example I); type: in vivo, Leptochloa chinensis (L.) Nees
ECHOR = test: In-water applied weed control, transplanted paddy rice, greenhouse (Example II); type: in vivo, Echinochloa oryzoides (Ard.) Fritsch
ISCRU = test: Postemergence foliar-applied weed control, direct seeded rice, greenhouse (Example I); type: in vivo, Ischaemum rugosum Salisb.; conditions: g ae/ha Compound A Benzyl Ester+g ai/ha saflufenacil: r49 8+0, r50 16+0, r51 0+10, r52 0+20, r53 8+10, r54 16+10, r55 8+20, r56 16+20
ECHCG = test: In-water applied weed control, transplanted paddy rice, greenhouse (Example II); type: in vivo, Echinochloa crus-galli (L.) P. Beauv.
LEFCH [2] = test: as above; type: in vivo, Leptochloa chinensis (L.) Nees
ECHCO = test: Postemergence foliar-applied weed control, direct seeded rice, greenhouse (Example I); type: in vivo, Echinochloa colona (L.) Link; conditions: g ae/ha Compound A Benzyl Ester+g ai/ha saflufenacil: r14 4.38+0, r15 8.75+0, r16 0+10, r17 0+20, r18 4.38+10, r19 8.75+10, r20 4.38+20, r21 8.75+20
CYPRO = test: In-water applied weed control, transplanted paddy rice, greenhouse (Example II); type: in vivo, Cyperus rotundus L.; conditions: 10 g ai/ha alone

| Compound | Visual Weed Control (%) - 28 DAA SETVI Obs (SETVI) [%] | Visual Weed Control (%) - 28 DAA IPOHE Obs (IPOHE; 105 g ai/ha alone) [%] | Visual Weed Control (%) - 28 DAA IPOHE Obs (IPOHE; 210 g ai/ha alone) [%] | Visual Weed Control (%) - 28 DAA IPOHE Obs (IPOHE; 420 g ai/ha alone) [%] | Visual Weed Control (%) - 29 DAA XANST Obs (XANST; 105 g ai/ha alone) [%] | Visual Weed Control (%) - 29 DAA XANST Obs (XANST; 210 g ai/ha alone) [%] | Visual Weed Control (%) - 20 DAA LEFCH Obs (LEFCH [1]; g ae/ha Compound A Acid+g ai/ha saflufenacil: r11 4.38+0, r12 8.75+0, r13 17.5+0, r14 0+5, r15 4.38+5, r16 8.75+5, r17 17.5+5) [%] | Visual Weed Control (%) - 20 DAA LEFCH Obs (LEFCH [1]; g ae/ha Compound A Benzyl Ester+g ai/ha saflufenacil: r26 8.75+0, r27 17.5+0, r28 0+5, r29 0+10, r30 8.75+5, r31 17.5+5, r32 8.75+10, r33 17.5+10) [%] | Visual Weed Control (%) - 20 DAA ECHOR Obs (ECHOR; 10 g ai/ha alone) [%] | Visual Weed Control (%) - 20 DAA ECHOR Obs (ECHOR; 20 g ai/ha alone) [%] | Visual Weed Control (%) - 21 DAA ISCRU Obs (ISCRU) [%] | Visual Weed Control (%) - 20 DAA ECHCG Obs (ECHCG; 10 g ai/ha alone) [%] | Visual Weed Control (%) - 20 DAA ECHCG Obs (ECHCG; 20 g ai/ha alone) [%] | Visual Weed Control (%) - 20 DAA LEFCH Obs (LEFCH [2]; 10 g ai/ha alone) [%] | Visual Weed Control (%) - 20 DAA LEFCH Obs (LEFCH [2]; 20 g ai/ha alone) [%] | Visual Weed Control (%) - 21 DAA LEFCH Obs (LEFCH [2]; 40 g ai/ha alone) [%] | Visual Weed Control (%) - 20 DAA ECHCO Obs (ECHCO) [%] | Visual Weed Control (%) - 20 DAA CYPRO Obs (CYPRO) [%] |
| --- | --- | --- | --- | --- | --- | --- | --- | --- | --- | --- | --- | --- | --- | --- | --- | --- | --- | --- |
| C#CCN1C(=O)COc2cc(F)c(N3C(=O)C4=C(CCCC4)C3=O)cc21 [Fumioxazin] | 73 | 70 | 70 | 90 | 18 | 48 |  |  |  |  |  |  |  |  |  |  |  |  |
| CC(C)N(C)S(=O)(=O)NC(=O)c1cc(-n2c(=O)cc(C(F)(F)F)n(C)c2=O)c(F)cc1Cl [Saflufenacil, 2-chloro-5-[3,6-dihydro-3-methyl-2,6-dioxo-4-(trifluoromethyl)-1(2H)-pyrimidinyl]-4-fluoro-N-[[methyl(1-methylethyl)amino]sulfonyl]benzamide, reference compound] |  |  |  |  |  |  | 0 | 0 | 0 | 0 | 0 | 0 | 10 | 0 | 0 | 5 | 40 | 0 |
